# Where two headings read alike, the source gives them in different places.
# Molecular target: Bovine serum albumin (Bos taurus, UniProt P02769)
# Experiment: Bovine Serum Albumin (BSA) assay, in-vitro protein denaturation
# Type: biochemical
# Conditions: for inhibition at 20 µg/mL / inhibition at 40 µg/mL / inhibition at 60 µg/mL / inhibition at 80 µg/mL / inhibition at 100 µg/mL: 72° C. for 10 minutes, turbidity at 660 nm
# Experimental: Bovine Serum Albumin Assay (BSA) In vitro-inflammatory activities of the tested samples were determined using a modified method of the BSA assay reported by Williams et al. BSA solution (0.4%, w/v) was prepared in Tris Buffered Saline. The pH was adjusted to 6.4 with glacial acetic acid. Different dilutions of 20, 40, 60, 80, and 100 μg/mL of 1-cyclopropyl-7-(4-((5-(3,5-dichlorobenzylideneamino)-2-thioxo-1,3,4-thiadiazol-3(2H)-yl)methyl)piperazin-1-yl)-6-fluoro-4-oxo-1,4-dihydroquinoline-3-carboxylic acid (IV) and the stock solutions were added to test tubes containing 1 mL of 0.4%, w/v BSA buffer solution. Both negative (solvent) and positive (aspirin) controls were assayed in a similar manner. The solutions were then heated in a water bath at 72° C. for 10 minutes, and cooled for 20 minutes under laboratory conditions. The turbidity of the solutions (level of protein precipitation) was measured at 660 nm in Spectrophotometer (V-770 UV-Visible/NIR Spectrophotometer). The percentage inhibition of precipitation (protein denaturation) was determined relative to the negative control using the following equation: [formula] [formula] Anti-Inflammatory Activity
# Chain of Bovine serum albumin (P02769 25-607): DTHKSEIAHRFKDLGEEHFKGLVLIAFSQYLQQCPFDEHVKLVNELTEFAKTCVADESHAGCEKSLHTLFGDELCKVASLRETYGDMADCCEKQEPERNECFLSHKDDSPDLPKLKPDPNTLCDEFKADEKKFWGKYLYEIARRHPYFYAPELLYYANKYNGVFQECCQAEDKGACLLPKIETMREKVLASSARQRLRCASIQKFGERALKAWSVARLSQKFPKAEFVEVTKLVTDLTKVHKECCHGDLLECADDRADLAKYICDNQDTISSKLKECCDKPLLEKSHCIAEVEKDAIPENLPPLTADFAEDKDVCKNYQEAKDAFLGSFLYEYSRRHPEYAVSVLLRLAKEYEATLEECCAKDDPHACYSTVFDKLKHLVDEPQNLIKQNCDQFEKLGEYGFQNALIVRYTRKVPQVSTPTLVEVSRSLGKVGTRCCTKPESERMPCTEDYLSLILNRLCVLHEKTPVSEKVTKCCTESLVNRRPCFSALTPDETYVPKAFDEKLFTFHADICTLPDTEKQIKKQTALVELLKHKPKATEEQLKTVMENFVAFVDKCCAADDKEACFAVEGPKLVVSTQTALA
"inhibition at 20 µg/mL (concentration 20 μg/ml, read-out: % Inhibition of protein denaturation (Bovine serum albumin)) [%]","inhibition at 40 µg/mL (concentration 40 μg/ml, read-out: % Inhibition of protein denaturation (Bovine serum albumin)) [%]","inhibition at 60 µg/mL (concentration 60 μg/ml, read-out: % Inhibition of protein denaturation (Bovine serum albumin)) [%]","inhibition at 80 µg/mL (concentration 80 μg/ml, read-out: % Inhibition of protein denaturation (Bovine serum albumin)) [%]","inhibition at 100 µg/mL (concentration 100 μg/ml, read-out: % Inhibition of protein denaturation (Bovine serum albumin)) [%]",in vitro anti-inflammatory activity (result in words) (BSA protein denaturation),"% Inhibition of protein denaturation (Bovine serum albumin) (bovine, 10 min, 100 μg/mL, pH 6.4) [%]","inhibition at 20 µg/mL (read-out: % Inhibition of protein denaturation (Bovine serum albumin), concentration 20 μg/ml) [%]","inhibition at 40 µg/mL (read-out: % Inhibition of protein denaturation (Bovine serum albumin), concentration 40 μg/ml) [%]","inhibition at 60 µg/mL (read-out: % Inhibition of protein denaturation (Bovine serum albumin), concentration 60 μg/ml) [%]","inhibition at 80 µg/mL (read-out: % Inhibition of protein denaturation (Bovine serum albumin), concentration 80 μg/ml) [%]","inhibition at 100 µg/mL (read-out: % Inhibition of protein denaturation (Bovine serum albumin), concentration 100 μg/ml) [%]",SMILES
71,77.5,82.6,85.5,90.8,–,–,–,–,–,–,–,"CC(=O)Oc1ccccc1C(=O)O [aspirin, reference compound]"
–,–,–,–,–,considerable anti-inflammatory effect,83.77,58,68.7,73.2,80,87.6,"O=C(O)c1cn(C2CC2)c2cc(N3CCN(Cn4nc(/N=C/c5cc(Cl)cc(Cl)c5)sc4=S)CC3)c(F)cc2c1=O [IV, 1-cyclopropyl-7-(4-((5-(3,5-dichlorobenzylideneamino)-2-thioxo-1,3,4-thiadiazol-3(2H)-yl)methyl)piperazin-1-yl)-6-fluoro-4-oxo-1,4-dihydroquinoline-3-carboxylic acid]"

# Reference: patent publication US11891385B1, “1-cyclopropyl-7-(4-((5-(3,5-dichlorobenzylideneamino)-2-thioxo-1,3,4-thiadiazol-3(2H)-yl)methyl)piperazin-1-yl)-6-fluoro-4-oxo-1,4-dihydroquinoline-3-carboxylic aci d as an anti-inflammatory compound” (KING FAISAL UNIVERSITY, priority 2023, dated 2024)
